According to ChEMBL document CHEMBL1201862, “PubChem BioAssay data set” (2004):
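Following 48 hours of exposure in 96-well plates, responses at five concentrations were used to interpolate endpoints linearly. GI50: concentration for 50% inhibition of growth.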 Calls of active or inactive are those of the source. No stated cut-off is given here; in the data, active = GI50 up to about 1.1 µM and inactive = higher.

Key:
Test in all cases: NCI tumour cell line growth inhibition, 48 h
UO-31 = system: UO-31
CAKI-1 = system: CAKI-1
SF-295 = system: SF-295
SR = system: SR
SK-MEL-28 = system: SK-MEL-28
NCI-H460 = system: NCI-H460
RXF 393 = system: RXF 393
T47D = system: T47D
K562 = system: K562
NCI-H226 = system: NCI-H226
M14 = system: M14
SW-620 = system: SW-620
TK-10 = system: TK-10
HCT-116 = system: HCT-116
SF-539 = system: SF-539
UACC-257 = system: UACC-257
MCF7 = system: MCF7
IGROV-1 = system: IGROV-1
RPMI-8226 = system: RPMI-8226
CCRF-CEM = system: CCRF-CEM

| SMILES | GI50 (UO-31) | GI50 (CAKI-1) | GI50 (SF-295) | GI50 (SR) | GI50 (SK-MEL-28) | GI50 (NCI-H460) | GI50 (RXF 393) | GI50 (T47D) | GI50 (K562) | GI50 (NCI-H226) | GI50 (M14) | GI50 (SW-620) | GI50 (TK-10) | GI50 (HCT-116) | GI50 (SF-539) | GI50 (UACC-257) | GI50 (MCF7) | GI50 (IGROV-1) | GI50 (RPMI-8226) | GI50 (CCRF-CEM) |
| --- | --- | --- | --- | --- | --- | --- | --- | --- | --- | --- | --- | --- | --- | --- | --- | --- | --- | --- | --- | --- |
| Sc1nc2c(c(-c3nc(S)nc4c3CCCCCCCCCC4)n1)CCCCCCCCCC2 | > 100 µM (inactive) | > 100 µM (inactive) | > 100 µM (inactive) | > 100 µM (inactive) | > 100 µM (inactive) | > 100 µM (inactive) | > 100 µM (inactive) | > 100 µM (inactive) | > 100 µM (inactive) | > 100 µM (inactive) | > 100 µM (inactive) | > 100 µM (inactive) | > 100 µM (inactive) | > 100 µM (inactive) | > 100 µM (inactive) | > 100 µM (inactive) | > 100 µM (inactive) | > 100 µM (inactive) |  |  |
| O=C1CCC(NC(=O)c2ccccc2)C(=O)N1 (stereo unspecified) | > 100 µM (inactive) | > 100 µM (inactive) | > 100 µM (inactive) | > 100 µM (inactive) | > 100 µM (inactive) | > 100 µM (inactive) | > 100 µM (inactive) | > 100 µM (inactive) |  | > 100 µM (inactive) | > 100 µM (inactive) | > 100 µM (inactive) | > 100 µM (inactive) | > 100 µM (inactive) | > 100 µM (inactive) | > 100 µM (inactive) | > 100 µM (inactive) | > 100 µM (inactive) | > 100 µM (inactive) |  |
| COc1ccc2cc(C(=O)NCCCNC(=O)c3ccc4c(OC)c(OC)ccc4c3)ccc2c1OC | > 100 µM (inactive) | > 100 µM (inactive) | > 100 µM (inactive) | > 100 µM (inactive) | > 100 µM (inactive) | > 100 µM (inactive) | > 100 µM (inactive) | > 100 µM (inactive) | > 100 µM (inactive) |  |  | > 100 µM (inactive) |  | > 100 µM (inactive) |  | > 100 µM (inactive) | > 100 µM (inactive) |  | > 100 µM (inactive) | > 100 µM (inactive) |
| Cc1c(-c2ccccc2)[nH]c2cc(Cl)ccc2c1=O | 0.0135 µM (active) | 29.2 µM (inactive) |  | 18.7 µM (inactive) | 71.9 µM (inactive) | 0.631 µM (active) | 18.6 µM (inactive) | > 100 µM (inactive) | 16.4 µM (inactive) | 21.1 µM (inactive) | 76.2 µM (inactive) |  | 38 µM (inactive) | 23.8 µM (inactive) | 39.8 µM (inactive) | 49.2 µM (inactive) | 37 µM (inactive) |  | > 100 µM (inactive) | > 100 µM (inactive) |
| CCN(CC)C(=O)CCN1CC1 | > 10 µM (inactive) | > 10 µM (inactive) | > 10 µM (inactive) | > 10 µM (inactive) | > 10 µM (inactive) | > 10 µM (inactive) | > 10 µM (inactive) | > 10 µM (inactive) | > 10 µM (inactive) | > 10 µM (inactive) | > 10 µM (inactive) |  | > 10 µM (inactive) | > 10 µM (inactive) | > 10 µM (inactive) | > 10 µM (inactive) | > 10 µM (inactive) | > 10 µM (inactive) | > 10 µM (inactive) | > 10 µM (inactive) |
| COC(O)C(=O)c1c2c(cc3c1CCC3)CCCC2 (stereo unspecified) | 17.7 µM (inactive) | 14.7 µM (inactive) | 10.5 µM (inactive) | 4 µM (inactive) | 9.48 µM (inactive) | 7.5 µM (inactive) |  | 6.28 µM (inactive) | 3.07 µM (inactive) | 16.5 µM (inactive) | 10.2 µM (inactive) | 3.44 µM (inactive) | 16.3 µM (inactive) | 2.02 µM (inactive) | 4.32 µM (inactive) | 12.6 µM (inactive) | 5.27 µM (inactive) | 4.12 µM (inactive) | 2.46 µM (inactive) | 2.39 µM (inactive) |
| COc1ccc2nc3c([N+](=O)[O-])ccc4c3c(c2c1)N=CN4CCCN(C)C | 2.38 µM (inactive) | 1.27 µM (inactive) | 2.55 µM (inactive) | 0.125 µM (active) | 10 µM (inactive) | 0.773 µM (active) |  | 11.5 µM (inactive) | 0.488 µM (active) | 7.18 µM (inactive) | 4.73 µM (inactive) | 0.44 µM (active) | 1.45 µM (inactive) | 0.419 µM (active) | 0.944 µM (active) | 3.78 µM (inactive) | 0.733 µM (active) | 0.855 µM (active) | 0.318 µM (active) | 0.807 µM (active) |
| Oc1cc(Cl)cc2cccnc12 | 0.847 µM (active) | 5 µM (inactive) | 0.288 µM (active) | 0.449 µM (active) | 19.3 µM (inactive) | 1.44 µM (inactive) | 3.02 µM (inactive) | 2.25 µM (inactive) | 0.396 µM (active) | 6.79 µM (inactive) | 10.5 µM (inactive) | 1.65 µM (inactive) | 57.5 µM (inactive) | 1.43 µM (inactive) |  | 1.38 µM (inactive) | 1.04 µM (active) | 0.986 µM (active) | 0.601 µM (active) | 0.288 µM (active) |
| CSC1=Nc2ccccc2-c2nc3ccccc3cc2C1 | > 100 µM (inactive) | > 100 µM (inactive) | > 100 µM (inactive) | 29.9 µM (inactive) | > 100 µM (inactive) | > 100 µM (inactive) | > 100 µM (inactive) | 25.9 µM (inactive) | > 100 µM (inactive) | > 100 µM (inactive) | > 100 µM (inactive) |  | > 100 µM (inactive) | > 100 µM (inactive) | > 100 µM (inactive) | > 100 µM (inactive) | > 100 µM (inactive) | > 100 µM (inactive) |  | > 100 µM (inactive) |
| N#Cc1c(-c2ccc(Cl)cc2)cc(-c2nc3ccccc3[nH]2)nc1N | 9.1 µM (inactive) | 17.9 µM (inactive) | 10.7 µM (inactive) | 4.56 µM (inactive) | 12.2 µM (inactive) | 7.19 µM (inactive) |  | 3.12 µM (inactive) | 6.71 µM (inactive) | 10.8 µM (inactive) | 4.32 µM (inactive) | 15 µM (inactive) | 10.1 µM (inactive) | 10.3 µM (inactive) | 15.3 µM (inactive) | 5.14 µM (inactive) | 3.49 µM (inactive) | 2.39 µM (inactive) | 4.22 µM (inactive) | 5.57 µM (inactive) |
| C=C1C(=O)O[C@H]2C/C(C=O)=C\[C@H]3O[C@H]3/C(COC(=O)C(C)C)=C/CC12 (stereo partly specified) | 5.58 µM (inactive) | 2.65 µM (inactive) | 25.6 µM (inactive) | 2.3 µM (inactive) | 3.3 µM (inactive) | 10.5 µM (inactive) | 3.49 µM (inactive) | 3.54 µM (inactive) | 2.9 µM (inactive) | 21.4 µM (inactive) |  | 2.52 µM (inactive) | 11.8 µM (inactive) | 3.05 µM (inactive) | 21.5 µM (inactive) | 11.1 µM (inactive) | 5.21 µM (inactive) | 4.65 µM (inactive) | 2.52 µM (inactive) | 1.83 µM (inactive) |
| C=C1CC(C)(COc2ccc3ccc(=O)oc3c2)OC1=O (stereo unspecified) | 15.8 µM (inactive) | 2.03 µM (inactive) | 5.68 µM (inactive) | 1.08 µM (active) | 2.94 µM (inactive) | 6.62 µM (inactive) |  | 3.66 µM (inactive) | 0.581 µM (active) | 11.4 µM (inactive) | 1.14 µM (inactive) | 0.822 µM (active) | 1.58 µM (inactive) | 1.14 µM (inactive) | 2.65 µM (inactive) | 0.671 µM (active) | 1.48 µM (inactive) | 2.93 µM (inactive) | 0.757 µM (active) | 0.402 µM (active) |
| O=S(=O)(Cc1nc2ccccc2s1)c1nc2ccccc2s1 | 16.7 µM (inactive) |  | 26.2 µM (inactive) | 4.72 µM (inactive) | 15.6 µM (inactive) | 38 µM (inactive) | 22.5 µM (inactive) | 21.3 µM (inactive) | 12.6 µM (inactive) | 26.5 µM (inactive) | 13 µM (inactive) | 17.2 µM (inactive) | 20 µM (inactive) | 13.9 µM (inactive) | 21.2 µM (inactive) | 15.8 µM (inactive) | 18.7 µM (inactive) | 18.7 µM (inactive) | 16 µM (inactive) | 5.5 µM (inactive) |
| CC(=O)OC(C)(C)CCC(=O)[C@](C)(O)[C@H]1[C@H](O)C[C@@]2(C)[C@@H]3CC=C4C(C)=C(OC5OC(CO)C(O)C(O)C5O)C(=O)C[C@@H]4[C@]3(C)C(=O)C[C@]12C (stereo partly specified) | > 100 µM (inactive) | > 100 µM (inactive) | > 100 µM (inactive) | > 100 µM (inactive) | > 100 µM (inactive) | > 100 µM (inactive) | > 100 µM (inactive) | > 100 µM (inactive) | > 100 µM (inactive) | > 100 µM (inactive) | > 100 µM (inactive) | > 100 µM (inactive) | > 100 µM (inactive) | > 100 µM (inactive) | > 100 µM (inactive) | > 100 µM (inactive) | > 100 µM (inactive) | > 100 µM (inactive) |  | > 100 µM (inactive) |
| CCOC(=O)C1C(=O)C=C(c2cc(C)ccc2O)CC1c1cccc(Cl)c1 (stereo unspecified) | 19.6 µM (inactive) | 30.7 µM (inactive) | 23.9 µM (inactive) | 5.21 µM (inactive) |  | 26.1 µM (inactive) | 19.3 µM (inactive) | 36.1 µM (inactive) | 12.9 µM (inactive) | 24.5 µM (inactive) | 30.1 µM (inactive) | 29 µM (inactive) | 20.3 µM (inactive) | 34 µM (inactive) | 19.6 µM (inactive) | 2.12 µM (inactive) | 19.5 µM (inactive) | 13.6 µM (inactive) | 18.7 µM (inactive) | 19.8 µM (inactive) |
